This note sets out measurements from patent publication US5045566A, “Novel imidate insecticides” (ICI Americas Inc., priority 1989, dated 1991).

Structures are written as SMILES.

What all share (assay type): in vivo
The subject of assay [1] is Cabbage Looper [Trichoplusia ni (Hubner)]. The experiment in a line: Cabbage looper leaf dip (CL), 3-5 days. The following applies: percent in solution, second-instar larvae. The protocol:
(§1) The compounds in Tables 1 and 2 above were tested for insecticidal activity using the following testing procedures. LC50 values, based on the results of these tests and calculated according to dosage-mortality curves, are expressed in Table 3.
Cabbage Looper [Trichoplusia ni (Hubner)]:
Test compounds were diluted in a 50-50 acetone-water solution. Cotyledons of hyzini squash (Calabacita abobrinha), approximately 1×1.5 inches, were immersed in the test solutions for 2-3 seconds and placed on a wire screen to dry. The dried leaves were placed in petri dishes containing a moistened piece of filter paper and infested with 5 second-instar cabbage looper larvae. The dishes were placed in a high humidity chamber. Mortality of the larvae was recorded 3-5 days later. Test concentrations ranged from 0.1% downward. The LC-50 value is expressed below in Table 3 under the heading "CL" in terms of percent of the test compound in solution.

Assay [2] has as its system Tobacco Budworm [Heliothis virescens (Fabricius)] eggs. The experiment in a line: Tobacco budworm eggs (TBW-E). The following applies: percent in solution; 2-day old eggs. How it is done:
as §1
Tobacco Budworm [Heliothis virescens (Fabricius)]:
(b). Eggs: Paper towel patches of 2-day old eggs of the tobacco budworm were dipped in acetone solutions of the test compound and placed in petri dishes containing a portion of larval rearing medium. Treated eggs were maintained at 78° F. and mortality was recorded after all control eggs had hatched and the young larvae were feeding on the media. Test concentrations ranged from 0.1% downward. The LC-50 value is expressed below in Table 3 under the heading "TBW-E" in terms of percent of the test compound in the solution.

In assay [3] the test system is Housefly [Musca domestica]. The experiment in a line: Housefly contact mortality in dishes (HF), 48 hours. The following applies: μg of test compound per 25 female flies. How it is done:
as §1
Housefly [Musca domestica]:
Test compounds were diluted in acetone and aliquots pipetted onto the bottom of aluminum dishes. To ensure even spreading of the chemical on the bottom of the dishes, 1 ml of acetone containing 0.01% peanut oil was also added to each dish. After all solvents had evaporated, the dishes were placed in circular cardboard cages containing 25 female houseflies, 1-2 days old. The cages were covered on the bottom with cellophane and on the top with tulle netting, and each contained a sugar-water saturated cotton plug for maintenance of the flies. Mortality was recorded after 48 hours. Test levels ranged from 100 μg/25 female houseflies downward. The LC-50 value is expressed below in Table 3 under the heading "HF", in terms of μg of the test compound per 25 female flies.

On to `CC(C)C(=Nc1ccc2c(c1)OC(C)(C)O2)OCc1cccc(Oc2ccccc2)c1` [Compound 182], for which the “LC50 CL” value in assay [1] was found to be 0.0006%. For the same compound, the “LC50 TBW E (eggs)” value in assay [2] worked out at 0.04%. In assay [3], the “LC50 HF” value came out at 28 µg.
For `CC(C)C(=Nc1ccc2c(c1)OCO2)OCc1cccc(Oc2ccccc2F)c1` [Compound 183] the same measures were 0.00075%, 0.075% and 10 µg.
Consider `CCCC(=Nc1ccc(OC)cc1)OCc1cccc(Oc2ccccc2)c1` [Compound 184], for which, in assay [1], the “LC50 CL” value was 0.024%. In assay [2], the “LC50 TBW E (eggs)” value was greater than 0.1%. Besides, the “LC50 HF” value in assay [3] is 61 µg.
As for `CCC(C)C(=Nc1ccc2c(c1)OCO2)OCc1cccc(Oc2ccccc2)c1` (stereo not drawn) [Compound 185], the “LC50 CL” value in assay [1] came out at 0.0006%. The “LC50 TBW E (eggs)” value in assay [2] is on record as 0.075%. Also, the “LC50 HF” value in assay [3] is 13 µg.
Take `CC(C)C(=Nc1ccc2c(c1)OCO2)OCc1cccc(Oc2ccccc2F)c1` [Compound 190]: the “LC50 CL” value in assay [1] turned out to be 0.0004%. Also, the “LC50 TBW E (eggs)” value in assay [2] is on record as 0.023%. The “LC50 HF” value in assay [3] stood at 7.5 µg.
`CC(C)C(=Nc1cccc(C(F)(F)F)c1)OCc1cccc(Oc2cccc(F)c2)c1` [Compound 192]: the “LC50 CL” value in assay [1] amounted to 0.0012%. In addition, the “LC50 TBW E (eggs)” value in assay [2] came to 0.07%. In assay [3], the “LC50 HF” value is 25 µg.
As for `CC(C)C(=Nc1ccc(Cl)c(C(F)(F)F)c1)OCc1cccc(Oc2cccc(F)c2)c1` [Compound 195], the “LC50 CL” value in assay [1] is given as 0.002%. In addition, the “LC50 TBW E (eggs)” value in assay [2] is recorded as greater than 0.1%. The “LC50 HF” value in assay [3] is greater than 100 µg.
On to `CC(C)C(=Nc1ccc(F)cc1)OCc1cccc(Oc2ccc(F)cc2)c1` [Compound 197], for which, in assay [1], the “LC50 CL” value came out at 0.0004%. For the same compound, in assay [2], the “LC50 TBW E (eggs)” value came out at 0.05%. In addition, in assay [3], the “LC50 HF” value is greater than 100 µg.
With `CC(C)C(=Nc1cccc(F)c1)OCc1cccc(Oc2ccc(F)cc2)c1` [Compound 200], the “LC50 CL” value in assay [1] is 0.00075%. Besides, the “LC50 TBW E (eggs)” value in assay [2] was found to be 0.1%. Further, the “LC50 HF” value in assay [3] is 7.5 µg.
Consider `COc1cccc(N=C(OCc2cccc(Oc3ccc(F)cc3)c2)C(C)C)c1` [Compound 201], for which the “LC50 CL” value in assay [1] is 0.004%. The “LC50 TBW E (eggs)” value in assay [2] was greater than 0.1%. In addition, the “LC50 HF” value in assay [3] was found to be 15 µg.
Consider `CC(C)C(=Nc1ccc(Cl)c(Cl)c1)OCc1cccc(Oc2cccc(Cl)c2)c1` [Compound 207], for which the “LC50 CL” value in assay [1] is given as 0.008%. The “LC50 TBW E (eggs)” value in assay [2] is given as greater than 0.1%. The “LC50 HF” value in assay [3] was greater than 100 µg.
Turning to `CC(C)C(=Nc1ccc(F)c(F)c1)OCc1cccc(Oc2ccc(Br)cc2)c1` [Compound 275], the “LC50 CL” value in assay [1] was found to be 0.00012%. Besides, the “LC50 TBW E (eggs)” value in assay [2] is 0.045%. Further, the “LC50 HF” value in assay [3] is 21 µg.
Regarding `CC(C)C(=Nc1ccc(F)c(Br)c1)OCc1cccc(Oc2ccc(Br)cc2)c1` [Compound 276], the “LC50 CL” value in assay [1] was determined as 0.002%. The “LC50 TBW E (eggs)” value in assay [2] stood at 0.1%. In assay [3], the “LC50 HF” value is 39 µg.
The like results for `CC(C)C(=Nc1ccc(C2CCCCC2)cc1)OCc1cccc(Oc2ccc(F)cc2)c1` [Compound 280] were, in that order, 0.024%, greater than 0.1% and greater than 100 µg.
In the case of `CC(C)C(=Nc1ccc(C(F)(F)F)cc1)OCc1ccc(F)c(Oc2ccc(F)cc2)c1` [Compound 287], the “LC50 CL” value in assay [1] was found to be 0.0025%. In assay [2], the “LC50 TBW E (eggs)” value is given as greater than 0.1%. In assay [3], the “LC50 HF” value was greater than 100 µg.
As for `CC(C)C(=Nc1cccc(OC(F)(F)C(F)F)c1)OCc1cccc(Oc2ccc(F)cc2)c1` [Compound 288], the “LC50 CL” value in assay [1] is 0.0015%. The “LC50 TBW E (eggs)” value in assay [2] is recorded as greater than 0.1%. Besides, the “LC50 HF” value in assay [3] is greater than 100 µg.
With `CCC(CC)C(=Nc1ccc(Cl)cc1)OCc1cccc(Oc2ccc(F)cc2)c1` [Compound 290], the “LC50 CL” value in assay [1] is 0.017%. The “LC50 TBW E (eggs)” value in assay [2] was greater than 0.1%. Moreover, in assay [3], the “LC50 HF” value is greater than 100 µg.
Regarding `CCC(CC)C(=Nc1cccc(C(F)(F)F)c1)OCc1cccc(Oc2ccc(F)cc2)c1` [Compound 291], the “LC50 CL” value in assay [1] worked out at 0.004%. Also, the “LC50 TBW E (eggs)” value in assay [2] is recorded as greater than 0.1%. In addition, in assay [3], the “LC50 HF” value is greater than 100 µg.
With `CC(Br)C(=Nc1ccc(F)c(Cl)c1)OCc1cccc(Oc2ccc(F)cc2)c1` (stereo not drawn) [Compound 305], the “LC50 CL” value in assay [1] worked out at 0.048%. Further, in assay [2], the “LC50 TBW E (eggs)” value is recorded as greater than 0.1%. Besides, the “LC50 HF” value in assay [3] is greater than 100 µg.
With `CC(C)C(=Nc1ccc(C(C)(C)C)c(Cl)c1)OCc1cccc(Oc2ccc(F)cc2)c1` [Compound 308], the “LC50 CL” value in assay [1] turned out to be 0.009%. In addition, the “LC50 TBW E (eggs)” value in assay [2] is greater than 0.1%. For the same compound, in assay [3], the “LC50 HF” value was greater than 100 µg.
Regarding `CC(C)(F)C(=Nc1ccc(F)c(Cl)c1)OCc1cccc(Oc2ccc(F)cc2)c1` [Compound 309], the “LC50 CL” value in assay [1] worked out at 0.00017%. Further, in assay [2], the “LC50 TBW E (eggs)” value came out at 0.07%. The “LC50 HF” value in assay [3] is greater than 100 µg.
Regarding `CC(C)C(=Nc1ccc(Cl)cc1Cl)OCc1cccc(Oc2ccccc2)c1` [Compound 311], the “LC50 CL” value in assay [1] is given as 0.0017%. Besides, the “LC50 TBW E (eggs)” value in assay [2] is reported as 0.1%. The “LC50 HF” value in assay [3] was determined as 22 µg.
`CC(C)C(=Nc1ccc(Cl)cc1Cl)OCc1cccc(Oc2ccc(F)cc2)c1` [Compound 312]: the “LC50 CL” value in assay [1] is 0.006%. Moreover, in assay [2], the “LC50 TBW E (eggs)” value is on record as greater than 0.1%. For the same compound, in assay [3], the “LC50 HF” value was greater than 100 µg.
The like results for `CC(C)C(=Nc1ccc2c(c1)OCO2)OCc1ccc(F)c(Oc2ccc(Cl)cc2)c1` [Compound 313] were, in that order, 0.00025%, 0.013% and greater than 100 µg.
The like results for `CCC(C)C(=Nc1ccc(C(C)C)cc1)OCc1cccc(Oc2ccccc2)c1` (stereo not drawn) [Compound 317] were, in that order, 0.0045%, 0.03% and greater than 100 µg.
As to `CC(C)(F)C(=Nc1ccc(F)c(F)c1)OCc1cccc(Oc2ccc(F)cc2)c1` [Compound 318], in assay [1], the “LC50 CL” value worked out at 0.0007%. Also, in assay [2], the “LC50 TBW E (eggs)” value is given as greater than 0.1%. The “LC50 HF” value in assay [3] is 19 µg.
The like results for `CC(C)(F)C(=Nc1cccc(C(F)(F)F)c1)OCc1cccc(Oc2ccc(F)cc2)c1` [Compound 319] were, in that order, 0.0007%, greater than 0.1% and 44 µg.
For `CCC(=Nc1ccc(C(C)C)cc1)OCc1cccc(Oc2ccc(F)cc2)c1` [Compound 320] the same measures were 0.0075%, greater than 0.1% and greater than 100 µg.
For `CCC(CC)C(=Nc1ccc(C(C)C)cc1)OCc1cccc(Oc2ccccc2)c1` [Compound 321], the “LC50 CL” value in assay [1] was 0.05%. Also, the “LC50 TBW E (eggs)” value in assay [2] is listed as greater than 0.1%. Besides, the “LC50 HF” value in assay [3] was greater than 100 µg.
`CC(C)c1ccc(N=C(OCc2cccc(Oc3ccc(F)cc3)c2)C(C)(C)C)cc1` [Compound 322]: in assay [1], the “LC50 CL” value is reported as 0.007%. The “LC50 TBW E (eggs)” value in assay [2] is on record as greater than 0.1%. Besides, the “LC50 HF” value in assay [3] was greater than 100 µg.
Consider `CC(C)C(=Nc1ccc2c(c1)OCO2)OCc1c(F)c(F)c(F)c(F)c1F` [Compound 464], for which, in assay [1], the “LC50 CL” value is 0.08%. Besides, the “LC50 TBW E (eggs)” value in assay [2] is given as greater than 0.1%. Besides, the “LC50 HF” value in assay [3] was greater than 100 µg.
With `CC(C)C(=Nc1ccc2c(c1)OCO2)OCc1cccc(Oc2ccccc2)n1` [Compound 467], the “LC50 CL” value in assay [1] is listed as 0.003%. The “LC50 TBW E (eggs)” value in assay [2] stood at 0.04%. Also, the “LC50 HF” value in assay [3] worked out at 6 µg.
Consider `CC(C)C(=Nc1ccc(F)c(Cl)c1)OCc1cccc(OCc2ccccc2)c1` [Compound 472], for which the “LC50 CL” value in assay [1] is reported as 0.0025%. The “LC50 TBW E (eggs)” value in assay [2] was greater than 0.1%. Besides, in assay [3], the “LC50 HF” value is greater than 100 µg.
Regarding `CC(C)C(=Nc1ccc(F)c(Cl)c1)OCc1ccc(F)c(Br)c1` [Compound 473], the “LC50 CL” value in assay [1] stood at 0.025%. Besides, the “LC50 TBW E (eggs)” value in assay [2] is greater than 0.1%. The “LC50 HF” value in assay [3] was greater than 100 µg.
Take `CC(C)C(=Nc1ccc(F)c(Cl)c1)OCc1coc(Cc2ccccc2)c1` [Compound 474]: the “LC50 CL” value in assay [1] is given as 0.0012%. The “LC50 TBW E (eggs)” value in assay [2] is listed as greater than 0.1%. Moreover, the “LC50 HF” value in assay [3] is 8 µg.
In the case of `CC(C)C(=Nc1cccc(C(F)(F)F)c1)OCc1ccc(OCc2ccccc2)cc1` [Compound 476], the “LC50 CL” value in assay [1] is recorded as 0.015%. In addition, in assay [2], the “LC50 TBW E (eggs)” value is given as greater than 0.1%. Further, in assay [3], the “LC50 HF” value was greater than 100 µg.
Consider `C=CCOc1cccc(COC(=Nc2ccc(Cl)c(Cl)c2)C(C)C)c1` [Compound 481], for which, in assay [1], the “LC50 CL” value stood at 0.015%. Also, the “LC50 TBW E (eggs)” value in assay [2] is greater than 0.1%. The “LC50 HF” value in assay [3] was greater than 100 µg.
